Experimental data from ChEMBL document CHEMBL1154799, “Asymmetrically substituted cationic indole- and fluorene porphyrins inhibit tumor proliferation in small intestinal neuroendocrine tumors and medullary thyroid carcinomas” (Eur J Med Chem, 2010).
Active and inactive are the calls of the source. The rule behind the calls is not given here.

What was measured:
KRJ-I [1] = experiment: (§1) Antiproliferative activity against human KRJ-I cells after 72 hrs by WST-1 assay; format: functional, cell-based
[2] = as §1; format: functional, cell-based
[3] = Cytotoxicity against human HF-SAR cells assessed as decrease in cell viability at 10 uM after 72 hrs by WST-1 assay; format: cell-based
[4] = Cytotoxicity against human MTC-SK cells assessed as induction of protease activity at 10 uM after 72 hrs by luminescence based assay; format: functional
Nucleic Acid [5] = experiment: Binding affinity to calf thymus DNA assessed as change in melting temperature; format: nucleic-acid assay; details: Bos taurus
KRJ-I [6] = experiment: (§2) Cytotoxicity against human KRJ-I cells assessed as decrease in cell viability after 72 hrs by WST-1 assay; format: functional, cell-based
[7] = as §2; format: functional, cell-based
[8] = Antiproliferative activity against human HF-SAR cells at 10 uM after 72 hrs by WST-1 assay; format: cell-based
KRJ-I [9] = experiment: (§3) Cytotoxicity against human KRJ-I cells assessed as decrease in cell viability at 10 uM after 72 hrs by WST-1 assay; format: functional
[10] = as §3; format: functional
MTC-SK [11] = experiment: Antiproliferative activity against human MTC-SK cells at 10 uM after 72 hrs by WST-1 assay; format: functional, cell-based
KRJ-I [12] = experiment: Cytotoxicity against human KRJ-I cells assessed as induction of protease activity at 10 uM after 72 hrs by luminescence based assay; format: functional, cell-based
[13] = (§4) Cytotoxicity against human MTC-SK cells assessed as decrease in cell viability at 10 uM after 72 hrs by WST-1 assay; format: functional
MTC-SK [14] = experiment: as §4; format: functional
KRJ-I [15] = experiment: Antiproliferative activity against human KRJ-I cells at 10 uM after 72 hrs by WST-1 assay; format: functional, cell-based
[16] = (§5) Antiproliferative activity against human MTC-SK cells after 72 hrs by WST-1 assay; format: functional, cell-based
MTC-SK [17] = experiment: as §5; format: functional, cell-based
[18] = (§6) Cytotoxicity against human MTC-SK cells assessed as decrease in cell viability after 72 hrs by WST-1 assay; format: functional, cell-based
MTC-SK [19] = experiment: as §6; format: functional, cell-based
Nucleic Acid [20] = experiment: Binding affinity to oligonucleotide d(CGTACG)2 by DNA intercalation assay; format: nucleic-acid assay

Row | Compound | Activity (KRJ-I [1]) | IC50 [2] [µM] | Activity [3] | Activity [4] [%] | Activity (Nucleic Acid [5]) | Activity (KRJ-I [6]) | IC50 [7] [µM] | Activity [8] | Activity (KRJ-I [9]) | Activity [10] [%] | Activity (MTC-SK [11]) | Activity (KRJ-I [12]) | Activity [13] [%] | Activity (MTC-SK [14]) | Activity (KRJ-I [15]) | IC50 [16] [µM] | Activity (MTC-SK [17]) | IC50 [18] [µM] | Activity (MTC-SK [19]) | Activity (Nucleic Acid [20])
1 | C[n+]1ccc(-c2c3nc(c(-c4cc[n+](C)cc4)c4ccc([nH]4)c(-c4cc[n+](C)cc4)c4nc(c(-c5ccc(-c6cn(S(=O)(=O)c7ccccc7)c7ccccc67)cc5)c5ccc2[nH]5)C=C4)C=C3)cc1.[Cl-].[Cl-].[Cl-] | Dose-dependent effect | 10 | Not Active | 64 | Active | Dose-dependent effect | 10 | Active | Active | 37 | Active | inactive | 74 | Active | Active | 10 | Dose-dependent effect | 10 | Dose-dependent effect | –
2 | C[n+]1ccc(-c2c3nc(c(-c4cc(-c5ccc6c(c5)C(C)(C)c5ccccc5-6)c[n+](C)c4)c4ccc([nH]4)c(-c4cc[n+](C)cc4)c4nc(c(-c5cc(-c6ccc7c(c6)C(C)(C)c6ccccc6-7)c[n+](C)c5)c5ccc2[nH]5)C=C4)C=C3)cc1.[Cl-].[Cl-].[Cl-].[Cl-] | Dose-dependent effect | 22.7 | Not Active | 46 | Active | Dose-dependent effect | 22.7 | Active | Active | 95 | Active | inactive | 91 | Active | Active | 22.7 | Dose-dependent effect | 22.7 | Dose-dependent effect | Active
3 | C[n+]1ccc(-c2c3nc(c(-c4cc[n+](C)cc4)c4ccc([nH]4)c(-c4cc(-c5ccc6c(c5)C(C)(C)c5ccccc5-6)c[n+](C)c4)c4nc(c(-c5cc[n+](C)cc5)c5ccc2[nH]5)C=C4)C=C3)cc1 | – | – | – | – | – | – | – | – | – | – | – | – | – | – | – | – | – | – | – | Active
